Tests used:
[1] = tested on: hearts perfused according to Langendorff technique; assay: Myocardial ischemia: LDH release from Langendorff-perfused rat hearts (ischemia/reperfusion); set-up: species or system male Wistar rats
Protocol: To this end, male Wistar rats, weighing 200-225 g, provided by Charles-River, were kept at constant temperature of 23°+/−1° C., 50+/−10% relative humidity, 12 hours light-dark cycle, fed with pellet 4RF21 (Mucedola) tap water ad libitum.
The amimals were anaesthetised with sodium Pentobarbital at the dose of 70 mg/Kg i.p.. Hearts were rapidly removed and put in a cold Krebs-Henseleit solution, before incannulation of aorta e subsequent perfusion according to Langendorff technique at 37° C. with a pressure of 100 cm water.
Perfusion medium (Krebs-Henseleit) at pH 7.4 consists in: 128 mM NaCl, 4.7 mM KCl, 1 mM MgCl2, 0.4 mM Na2HP04, 20.2 mM NaHCO3, 1.3 mM CaCl2, 5 mM glucose. The medium was constantly oxygenated with carbogen (95% O2, 5% CO2).
After a 10 min “conditioning” period, hearts were perfused in a recirculant apparatus for 20 min. with the same medium containing 0.6 mM palmitate complexed with albumine (fraction V, fatty acid free), with or without the CPT inhibitor according to the present invention. By way of example ST 1364 was used at concentrations of 1 and 5 μM. After such a period ischemia was induced by reducing perfusion hydrostatic pressure from 100 cm to 20 cm for a period of 30 min. Reperfusion was started re-establishing the starting pressure conditions (100 cm).Hearts were controlled for 20 min. the inhibitor is present also during reperfusion phase.
Lactate dehydrogenases (LDH) release was monitored in the effluent in normal oxygenation conditions, during ischemia, with a withdrawal of medium at 30′, and during reperfusion, with withdrawals at 1.5, 10, 15 and 20 minutes.
Statistical analysis was carried out with Student's “t” test for non-paired data.
The number of the cases for each group is six (n=6).

[2] = tested on: β-hydroxybutyrate production in rat hepatocytes; assay: Oleate-stimulated β-hydroxybutyrate production in rat hepatocytes; format: cell-based; conditions: 40 min incubation, then oleate 1 mM for 20 min, mean of three experiments, read-out: IC50 of inhibition CPTI curve of β-hydroxybutyrate production in rat hepatocytes
Protocol: β-hydroxybutyrate production is an index of CPT activity. In fact, the production of ketone bodies, final products of mitochrondrial β-oxidation, is related to CPT activity.
Mitocondrial preparations, obtained according to the method by Venerando et al. (Am. J. Physiol. 266:C455-C461, 1994), were used. Hepatocytes are incubated at 37° C. in KRB bicarbonate buffer at pH 7.4, 6 mM glucose, 1% BSA in O2/CO2 95/5 atmosphere at 2.5×10^6 cells/ml. After 40 min incubation with the test compound at different concentrations, the first set of samples was taken (T0 min) and oleate was added (1 mM final in KRB+BSA 1.4%). After 20 minutes, the second withdrawal was made (T20 min)
The data are the mean of three different experiments, twice carried out.

[3] = tested on: 24 hours-starved rats; assay: Glucose and β-hydroxybutyrate in serum of fasted rats treated with CPT inhibitors; format: in vivo, Fischer rats; conditions: one hour after intraperitoneal treatment, ST1326 14.5 mg/2 ml/kg, others equivalent dose
Protocol: Normally fed Fischer rats were starved for 24 hours and subsequently treated with the test compounds. One hour after the treatment, the animals were sacrificed and serum concentrations of glucose and β-hydroxybutyrate were determined.
For the compound ST1326 were used doses of 14.5 mg/2 ml/kg, for other test compounds, the doses are equivalent to ST1326 one.

[4] = molecular target: T1, CPTI (Rattus norvegicus, UniProt P32198); assay: Determination of CPT inhibiting activity in rat liver mitochondria; format: biochemical, Fischer rat; conditions: 50 μM [14C] palmitoyl-CoA, 10 mM L-carnitine, 37° C., 1 minute, read-out: IC50 of inhibition CPTI curve in rat liver mitochondria
T1 construct: Mitochondria were isolated from liver or heart and suspended in 75 mM saccharose buffer; from tissue; host or cells: liver mitochondria of normally fed Fischer rats
T1 sequence (P32198 1-773): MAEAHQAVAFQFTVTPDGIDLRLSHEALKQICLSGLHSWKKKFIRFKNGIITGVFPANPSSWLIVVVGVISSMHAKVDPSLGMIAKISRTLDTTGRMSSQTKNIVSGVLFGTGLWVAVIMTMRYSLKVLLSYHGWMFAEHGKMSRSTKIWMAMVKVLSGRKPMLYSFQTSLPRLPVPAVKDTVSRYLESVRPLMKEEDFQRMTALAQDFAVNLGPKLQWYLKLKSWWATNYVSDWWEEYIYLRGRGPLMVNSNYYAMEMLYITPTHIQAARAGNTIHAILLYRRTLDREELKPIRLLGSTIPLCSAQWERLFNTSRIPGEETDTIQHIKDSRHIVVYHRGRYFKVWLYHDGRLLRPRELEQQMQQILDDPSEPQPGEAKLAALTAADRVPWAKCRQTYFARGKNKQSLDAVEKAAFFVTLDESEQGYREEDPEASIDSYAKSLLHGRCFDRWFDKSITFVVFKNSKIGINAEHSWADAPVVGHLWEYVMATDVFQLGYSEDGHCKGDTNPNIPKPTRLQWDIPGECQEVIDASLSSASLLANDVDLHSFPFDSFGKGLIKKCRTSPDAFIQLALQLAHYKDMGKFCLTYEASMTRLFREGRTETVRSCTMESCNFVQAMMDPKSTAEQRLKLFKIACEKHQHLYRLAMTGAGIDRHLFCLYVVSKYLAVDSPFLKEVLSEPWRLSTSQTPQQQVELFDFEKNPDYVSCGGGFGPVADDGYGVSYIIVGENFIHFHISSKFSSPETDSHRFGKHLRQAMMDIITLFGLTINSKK
Protocol: CPT inhibition was evaluated essentially as described in Kerner, J. & Bieber, L. L. (1990) Biochemistry 29: 4326-34 on fresh mitochrondrial preparation obtained from normally fed Fischer rat liver or heart. Mitochondria were isolated from liver or heart and suspended in 75 mM saccharose buffer, 1 mM EGTA, pH 7.5. 100 μl mitochrondrial suspension, containing 50 μM [^14C] palmitoyl-CoA (specific activity […]) and 10 mM L-carnitine, were incubated at 37° C., in the presence of scalar concentrations of the test product (0-3 mM). Reaction time: 1 minute.

[5] = tested on: fed with high-fat diet; assay: Glucose and insulin levels in diabetic animals (high-fat diet) treated with CPT inhibitors; format: in vivo, C57BL/6J male rats; conditions: 45 mg/Kg p.o. twice a day, after 20 days of treatment
Protocol: C57BL/6J male […], 5-weeks old, were provided by Ch. River. After 10 days of acclimatisation in standard conditions (22±2° C.; 55±15% humidity; 15-20/h air changes; 12 hours light-dark cycle, with 700-1900 lux) and with standard diet with 4RF21 feedstock (Mucedola), glycaemia was controlled in post-absorption state (starving from 8.30 a.m. to 4.30 p.m.). Blood withdrawal was carried out cutting the tail end. Glucose was analyzed in blood acid supernatant (HCLO4 0,375 N) with autoanalyzer Cobas Mira S with Glucose GDH Kit (Roche).
The animals were divided in two groups, 26 mice each and fed with a high-fat and a low-fat diet, respectively.
After 2 months from the start of the diet, glycaemia was tested, according to the starrting method. After about 3 months from the start of the diet, glycaemia was tested, according to the starting method and plasma insulin levels were also determined (with blood withdrawal from end tail cutting) using [125I] Rat Insulin Kit (Amersham).
One 10 mice group fed with low-fat diet and two 10-mice groups fed with the high-fat diet were selected. One of the two high fat diet was administered with ST 1327 at the dose of 45 mg/Kg in deionised H2O (p.o., twice a day, 8.30 a.m. and 5.30 p.m.).administration volume was 10 ml/Kg, the two remaining groups were treated with vehicle only. High-fat or low-fat diets were continued during the treatment.
After 20 days of treatment, glycaemia and plasma insulin were measured. After 43 days of treatment, the animals were sacrificed by decapitation in post-absorption state (fasting 8.30 a.m.-4.30 p.m.), 8 hours after the last treatment. Blood was withdrawn and serum was separated by centrifugation and stored at −80° C. Liver, heart and skeletal muscle (upper limbs) were also extracted, frozen in dry ice-acetone and kept at −80° C.

| SMILES | IC50 [2] [µM] | Glu (glucose) serum concentration, Mean [3] | β-OHB serum concentration, Mean [3] | IC50 [4] [µM] | other results |
| --- | --- | --- | --- | --- | --- |
| CCCCCCCCCCS(=O)(=O)NC(CC(=O)[O-])C[N+](C)(C)C (centres unmarked) [ST1364, R,S-4-trimethylammonium-3-(decansulfonyl)aminobutyrate] |  |  |  |  | LDH release in perfusate ([1]; 1 μM, Basal): 275 mU/ml/min; LDH release in perfusate ([1]; 1 μM, Ischemia 30′): 220 mU/ml/min; LDH release in perfusate ([1]; 1 μM, Reperfusion 1′): 480 mU/ml/min; LDH release in perfusate ([1]; 1 μM, Reperfusion 5′): 500 mU/ml/min; LDH release in perfusate ([1]; 1 μM, Reperfusion 10′): 495 mU/ml/min; LDH release in perfusate ([1]; 1 μM, Reperfusion 15′): 510 mU/ml/min; LDH release in perfusate ([1]; 1 μM, Reperfusion 20′): 580 mU/ml/min; LDH release in perfusate ([1]; 5 μM, Basal): 220 mU/ml/min; LDH release in perfusate ([1]; 5 μM, Ischemia 30′): 200 mU/ml/min; LDH release in perfusate ([1]; 5 μM, Reperfusion 1′): 410 mU/ml/min; LDH release in perfusate ([1]; 5 μM, Reperfusion 5′): 380 mU/ml/min; LDH release in perfusate ([1]; 5 μM, Reperfusion 10′): 380 mU/ml/min; LDH release in perfusate ([1]; 5 μM, Reperfusion 15′): 320 mU/ml/min; LDH release in perfusate ([1]; 5 μM, Reperfusion 20′): 325 mU/ml/min; LDH release in the effluent during reperfusion (in words) ([1]; 5 μM, with respect to the controls): significantly reduced |
| CCCCCCCCOC(=O)NC(CC(=O)O)C[N+](C)(C)C.[Cl-] (centres unmarked) [ST1253, R,S-4-trimethylammonium-3-(octyloxycarbonyl)-aminobutyrate chloride] | 0.9 | 88.2 | 118.8 |  |  |
| CCCCCCCCCCCNC(=O)N[C@H](CC(=O)[O-])C[N+](C)(C)C [ST1327, R-4-trimethylammonium-3-(undecylcarbamoyl)-aminobutyrate] |  | 84.9 | 93.0 | 3.2 | Glucose ([5]; High Fat diet Treated, p<0.001 against high fat diet): 181.4 ± 9.63 mg/dL; Insulin ([5]; High Fat diet Treated, p<0.01 against high fat diet): 0.621 ± 0.117 ng/mL; glucose levels (in words) ([5]; high-fat diet): significantly decreased; insulin levels (in words) ([5]; high-fat diet): significantly decreased |
| CCCCCCCNC(=O)N[C@H](CC(=O)[O-])C[N+](C)(C)C [ST1328, R-4-trimethylammonium-3-(heptylcarbamoyl)-aminobutyrate] |  | 79.5 | 169.2 |  |  |
| CCCCCCCCCNC(=O)NC(CC(=O)[O-])C[N+](C)(C)C (centres unmarked) [ST1251, R,S-4-trimethylammonium-3-(nonylcarbamoyl)aminobutyrate] | 0.5 | 76.9 | 99.8 |  |  |
| CCCCCCCCCCCCCCOP(=O)([O-])O[C@H](CC(=O)O)C[N+](C)(C)C [SDZ-CPI-975, reference compound] | 3.7 | 87.6 | 119.9 | 17.4 |  |
| CCCCCCCCCOC(=O)NC(CC(=O)[O-])C[N+](C)(C)C (centres unmarked) [ST1285, R,S-4-trimethylammonium-3-(nonyloxycarbonyl)-aminobutyrate] | 1.9 |  |  |  |  |
| CCCCCCCCCCCCCCNC(=O)N[C@H](CC(=O)[O-])C[N+](C)(C)C [ST1326, R-4-trimethylammonium-3-(tetradecylcarbamoyl)amino butyrate] |  | 84.2 | 133.1 | 0.75 |  |

Source: patent publication USRE41226E1, “Compounds having reversible inhibiting activity of carnitine palmitoyl-transferase” (Sigma-Tau Industrie Farmaceutiche Riunite S.p.A., priority 1998, dated 2010)
